Measured values from US4900748A (priority 1988, dated 1990).
Read-outs that look alike come from different tables or passages of the source.

Tests used:
[1] = biological target: Butyrylcholinesterase (Plasma) (Homo sapiens, UniProt P06276); assay: biochemical
[2] = biological target: Butyrylcholinesterase (Cortex) (Homo sapiens, UniProt P06276); assay: biochemical
[3] = biological target: Acetylcholinesterase (RBC) (Homo sapiens, UniProt P22303); assay: biochemical
[4] = biological target: Acetylcholinesterase (Caudate) (Homo sapiens, UniProt P22303); assay: biochemical
Sequence of Acetylcholinesterase (Caudate) (P22303 32-614): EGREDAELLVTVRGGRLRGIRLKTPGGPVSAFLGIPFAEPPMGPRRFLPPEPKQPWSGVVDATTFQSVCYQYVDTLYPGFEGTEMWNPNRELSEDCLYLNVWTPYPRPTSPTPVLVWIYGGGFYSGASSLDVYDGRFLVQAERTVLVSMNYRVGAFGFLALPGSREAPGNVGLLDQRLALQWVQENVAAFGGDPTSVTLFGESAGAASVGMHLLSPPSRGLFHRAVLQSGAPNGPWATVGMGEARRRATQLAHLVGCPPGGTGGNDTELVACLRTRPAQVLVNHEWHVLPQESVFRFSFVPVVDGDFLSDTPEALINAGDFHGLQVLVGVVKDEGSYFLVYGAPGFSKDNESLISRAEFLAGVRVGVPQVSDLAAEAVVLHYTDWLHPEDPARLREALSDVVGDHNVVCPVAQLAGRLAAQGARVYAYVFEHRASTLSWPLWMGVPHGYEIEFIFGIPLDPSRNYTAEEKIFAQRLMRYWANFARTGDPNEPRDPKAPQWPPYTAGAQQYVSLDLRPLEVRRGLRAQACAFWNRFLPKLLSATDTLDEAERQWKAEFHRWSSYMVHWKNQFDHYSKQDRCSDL

[5] = biological target: Acetylcholinesterase (Cortex) (Homo sapiens, UniProt P22303); assay: biochemical
Sequence of Acetylcholinesterase (Cortex) (P22303 32-614): as above

acetylcholinesterase = type: biochemical; settings: for IC50: read-out: IC50, antiacetylcholinesterase (approximate)
[6] = biological target: Acetylcholinesterase (Eel) (Electrophorus electricus, UniProt O42275); assay: biochemical
Sequence of Acetylcholinesterase (Eel) (O42275 24-633): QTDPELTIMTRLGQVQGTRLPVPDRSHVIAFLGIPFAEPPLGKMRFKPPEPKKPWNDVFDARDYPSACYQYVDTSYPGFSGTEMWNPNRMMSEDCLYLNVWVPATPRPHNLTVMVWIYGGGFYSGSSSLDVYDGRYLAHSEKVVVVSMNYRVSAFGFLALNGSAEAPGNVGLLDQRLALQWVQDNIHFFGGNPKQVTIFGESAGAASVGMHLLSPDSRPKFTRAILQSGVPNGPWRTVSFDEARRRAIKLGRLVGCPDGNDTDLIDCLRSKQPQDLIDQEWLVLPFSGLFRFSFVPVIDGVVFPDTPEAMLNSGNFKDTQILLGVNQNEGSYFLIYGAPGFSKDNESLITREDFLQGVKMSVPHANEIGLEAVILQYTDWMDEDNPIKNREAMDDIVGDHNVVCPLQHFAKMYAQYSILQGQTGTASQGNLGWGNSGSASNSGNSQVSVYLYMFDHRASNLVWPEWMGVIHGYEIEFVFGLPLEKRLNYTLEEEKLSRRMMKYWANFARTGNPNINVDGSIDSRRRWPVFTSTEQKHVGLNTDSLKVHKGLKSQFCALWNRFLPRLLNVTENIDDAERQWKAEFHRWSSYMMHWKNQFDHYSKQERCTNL

[7] = system: acetyl- and butyryl-cholinesterase; type: biochemical
butyrylcholinesterase = type: biochemical
neuromuscular AChR = settings: cited from earlier work
nicotinic AChR = settings: cited from earlier work
[8] = read-out: IC50 Butyrylcholinesterase Plasma
[9] = read-out: IC50 Acetylcholinesterase RBC
[10] = read-out: IC50 Acetylcholinesterase Eel
[11] = read-out: IC50 Butyrylcholinesterase Cortex
[12] = read-out: IC50 Acetylcholinesterase Caudate
[13] = read-out: IC50 Acetylcholinesterase Cortex

Sequence of Butyrylcholinesterase (Plasma) (P06276 29-602): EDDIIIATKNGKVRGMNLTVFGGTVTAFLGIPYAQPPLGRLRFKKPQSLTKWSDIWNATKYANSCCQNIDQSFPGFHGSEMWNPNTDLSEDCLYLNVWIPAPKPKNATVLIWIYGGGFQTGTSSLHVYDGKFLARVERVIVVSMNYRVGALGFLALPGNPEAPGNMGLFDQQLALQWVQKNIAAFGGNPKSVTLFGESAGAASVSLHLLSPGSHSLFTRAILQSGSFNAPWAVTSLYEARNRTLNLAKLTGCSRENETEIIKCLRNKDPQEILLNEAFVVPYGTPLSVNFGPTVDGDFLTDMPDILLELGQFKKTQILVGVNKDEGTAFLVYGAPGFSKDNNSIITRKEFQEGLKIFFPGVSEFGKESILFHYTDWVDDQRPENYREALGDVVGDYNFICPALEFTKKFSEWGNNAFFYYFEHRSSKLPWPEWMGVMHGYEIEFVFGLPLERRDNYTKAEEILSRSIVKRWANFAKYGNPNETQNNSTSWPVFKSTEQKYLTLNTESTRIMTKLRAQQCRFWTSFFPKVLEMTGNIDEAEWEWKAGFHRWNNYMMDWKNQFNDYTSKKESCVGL
Sequence of Butyrylcholinesterase (Cortex) (P06276 29-602): as above
Sequence of Acetylcholinesterase (RBC) (P22303-2 with tags, fused parts or gaps limits assumed): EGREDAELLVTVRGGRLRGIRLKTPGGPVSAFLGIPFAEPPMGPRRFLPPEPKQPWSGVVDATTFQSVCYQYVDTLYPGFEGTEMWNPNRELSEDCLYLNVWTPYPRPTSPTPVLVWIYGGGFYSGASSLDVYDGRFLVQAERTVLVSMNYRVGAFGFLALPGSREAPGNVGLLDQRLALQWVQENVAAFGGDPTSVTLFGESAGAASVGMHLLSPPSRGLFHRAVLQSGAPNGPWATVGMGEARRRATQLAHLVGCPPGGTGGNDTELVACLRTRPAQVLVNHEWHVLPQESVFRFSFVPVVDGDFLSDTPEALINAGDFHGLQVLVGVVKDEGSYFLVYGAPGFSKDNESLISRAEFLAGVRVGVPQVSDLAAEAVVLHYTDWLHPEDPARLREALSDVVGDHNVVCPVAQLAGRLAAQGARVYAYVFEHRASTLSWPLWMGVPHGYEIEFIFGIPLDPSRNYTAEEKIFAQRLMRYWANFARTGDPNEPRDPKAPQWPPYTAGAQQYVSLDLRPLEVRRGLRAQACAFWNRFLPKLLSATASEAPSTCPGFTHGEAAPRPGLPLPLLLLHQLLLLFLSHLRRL

## CCCCCCCCNC(=O)Oc1ccc2c(c1)[C@]1(C)CCN(C)[C@@H]1N2C [YU-71, eseroline octylcarbamate]
[1]
  IC50: 0.0036 ± 0.001 µM
[2]
  IC50: 0.0087 ± 0.0037 µM

## CNC(=O)Oc1ccc2c(c1)[C@]1(C)CCN(CCc3ccccc3)[C@@H]1N2C [YU-112, N--phenylethyl physostigmine]
[3]
  IC50: 0.213 ± 0.038 µM
[4]
  IC50: 0.191 ± 0.056 µM
[5]
  IC50: 0.155 ± 0.028 µM

## CN1CC[C@@]2(C)c3cc(OC(=O)Nc4ccccc4)ccc3N(C)[C@@H]12 [YU-79, eseroline phenylcarbamate]
[1]; [8]
  IC50: 1.3 µM
acetylcholinesterase
  IC50: ~0.03 µM
[3]; [9]
  IC50: 0.024 ± 0.006 µM
[6]; [10]
  IC50: 0.35 ± 0.09 µM
[7]
  specificity acetyl- versus butyryl-cholinesterase: relatively specific for acetyl- rather than butyryl-cholinesterase
[2]; [11]
  IC50: 2.5 µM
[4]; [12]
  IC50: 0.021 ± 0.001 µM
[5]; [13]
  IC50: 0.036 ± 0.003 µM

## COc1ccc(NC(=O)Oc2ccc3c(c2)[C@]2(C)CCN(C)[C@@H]2N3C)cc1 [YU-114, methoxyphenyl carbamoyleseroline]
[1]
  IC50: 0.0276 ± 0.0018 µM
acetylcholinesterase
  reduction of antiacetylcholinesterase potency: approximately 10 fold
[6]
  IC50: 1.68 ± 0.38 µM
[7]
  specificity acetyl- versus butyryl-cholinesterase: approximately equally potent against both enzymes
butyrylcholinesterase
  increase of antibutyrylcholinesterase potency: ten-fold
[2]
  IC50: 0.224 ± 0.047 µM

## CNC(=O)Oc1ccc2c(c1)C1(C)CC[N+](C)(C)C1N2C (single isomer, unassigned) [YU-117, methosulfate of (-)physostigmine]
acetylcholinesterase
  antiacetylcholinesterase potency in words: as potent against acetylcholinesterase as physostigmine itself
[3]; [9]
  IC50: 0.0294 ± 0.0052 µM
[6]; [10]
  IC50: 0.0335 ± 0.0006 µM
[7]
  specificity acetyl- versus butyryl-cholinesterase: more potent against acetylcholinesterase than against butyrylcholinesterase
[4]; [12]
  IC50: 0.0283 ± 0.0037 µM
[5]; [13]
  IC50: 0.0371 ± 0.0066 µM

## CNC(=O)Oc1ccc2c(c1)[C@]1(C)CCN(C)[C@@H]1N2C [(-) physo, (-)-physostigmine]
Neuromuscular AChR
  properties at the neuromuscular AChR: blocking as well as agonist properties

## CN1CC[C@@]2(C)c3cc(O)ccc3N(C)[C@@H]12 (relative stereo) [(+/-)eseroline, reference compound]
[1]
  IC50: > 10 µM
[3]
  IC50: > 10 µM
[6]
  IC50: > 10 µM
[2]
  IC50: > 10 µM
[4]
  IC50: > 10 µM

## CN1CC[C@@]2(C)c3cc(OC(=O)NCc4ccccc4)ccc3N(C)[C@@H]12 [YU-69-1, eseroline benzylcarbamate]
[1]
  IC50: 0.0027 ± 0.0016 µM
[3]
  IC50: 0.026 ± 0.008 µM
[6]
  IC50: 0.46 ± 0.08 µM
[2]
  IC50: 0.02 ± 0.011 µM
[4]
  IC50: 0.027 ± 0.01 µM
[5]
  IC50: 0.024 ± 0.005 µM

## CCCCNC(=O)Oc1ccc2c(c1)[C@]1(C)CCN(C)[C@@H]1N2C [YU-120, butylcabamoyl eseroline]
[1]
  IC50: 0.00413 ± 0.00125 µM
[3]
  IC50: 0.0176 ± 0.0091 µM
[6]
  IC50: 0.152 ± 0.009 µM
[7]
  effect of shortening the side chain on potency against acetyl- or butyryl-cholinesterase: does not alter the potency of the compound against either acetyl- or butyryl-cholinesterase
[2]
  IC50: 0.016 ± 0.0044 µM
[4]
  IC50: 0.0203 ± 0.0068 µM
[5]
  IC50: 0.0208 ± 0.0037 µM

## CN1CC[C@@]2(C)c3cc(OC(=O)Nc4ccc(Cl)cc4)ccc3N(C)[C@@H]12 [YU-116, chlorophenyl carbamoyleseroline]
[1]
  IC50: 4 ± 0.052 µM
acetylcholinesterase
  antiacetylcholinesterase potency in words: much less against acetylcholinesterase
  reduction of antiacetylcholinesterase potency: approximately 10 fold
  IC50: ~0.5 µM
[3]
  IC50: 0.654 ± 0.032 µM
[6]
  IC50: 1.8 ± 0.085 µM
[7]
  specificity acetyl- versus butyryl-cholinesterase: relatively specific for acetyl- rather than butyryl-cholinesterase
[2]
  IC50: 4.46 ± 1.29 µM
[4]
  IC50: 0.448 ± 0.029 µM
[5]
  IC50: 0.417 ± 0.088 µM

## Ethoprop [reference compound]
[1]; [8]
  IC50: 0.3 µM
[6]; [10]
  IC50: 120 µM
[2]; [11]
  IC50: 0.21 µM

## C=CCN1CC[C@@]2(C)c3cc(OC(=O)NC)ccc3N(C)[C@@H]12 [YU-110, N--allyl physostigmine]
[1]
  IC50: 0.00265 ± 0.00201 µM
acetylcholinesterase
  antiacetylcholinesterase potency in words: as potent against acetylcholinesterase as physostigmine itself
[7]
  specificity acetyl- versus butyryl-cholinesterase: equipotent versus both acetyl- and butyryl-cholinesterase
[2]
  IC50: 0.0156 ± 0.0069 µM

## CN1CC[C@@]2(C)c3cc(O)ccc3N(C)[C@@H]12 [(-)eseroline, (-)-eseroline, reference compound]
[1]
  IC50: > 10 µM
[3]
  IC50: > 10 µM
[6]
  IC50: > 10 µM
[2]
  IC50: > 10 µM
[4]
  IC50: > 10 µM

## CNC(=O)Oc1ccc2c(c1)[C@]1(C)CCN[C@@H]1N2C [YU-96, N--norphysostigmine]
acetylcholinesterase
  antiacetylcholinesterase potency in words: as potent against acetylcholinesterase as physostigmine itself
[7]
  specificity acetyl- versus butyryl-cholinesterase: equipotent versus both acetyl- and butyryl-cholinesterase

## C=CC[N+](C)(C)c1ccc(CCC(=O)CCc2ccc([N+](C)(C)CC=C)cc2)cc1 [BW284c51, reference compound]
[6]
  IC50: 0.0073 µM

## CC(C)NP(=O)(NC(C)C)OP(=O)(NC(C)C)NC(C)C [iso-OMPA, reference compound]
[6]
  IC50: > 1000 µM

## CN1CC[C@]2(C)c3cc(O)ccc3N(C)[C@H]12 [(+)eseroline, reference compound]
[1]
  IC50: > 10 µM
[3]
  IC50: > 10 µM
[6]
  IC50: > 10 µM
[2]
  IC50: > 10 µM
[4]
  IC50: > 10 µM

## c1ccc(C2(N3CCCCC3)CCCCC2)cc1 [phencyclidine]
Nicotinic AChR
  modification of AChR activation: modify noncompetitively the activation of the AChR
